Here are results for one molecule from patent publication US12128040B2, “Selective estrogen receptor degraders” (Eli Lilly and Company, priority 2018, dated 2024).

For this assay, the system named is ERα receptor. The experiment in a line: PRα inhibition (ERα functional antagonism) cell assay in MCF7 cells. Type of assay: cell-based. The note with it: Homo sapiens, pretreated with 0.47 nM estradiol, n=15, read-out: Relative IC50 (nM), PRα inhibition. An excerpt:
The purpose of the following PRα inhibition (ERα functional antagonism) cell assay is to determine the antagonistic activity of a test compound against the ERα receptor. An antagonist in this assay is expected to block the function of the ERα receptor.
Carry out the assay conditions as detailed in the ERα degradation Cell base Acumen assay above, using the MCF7 cell line except that, prior to test compound dispensing, remove the media from the cell plate and pretreat all wells except for the negative control wells (column 24 of the plate) with assay media containing 0.47 nM estradiol for 30 minutes. In this assay, carry out immunostaining for the detection of PRα and scan the plates with ACUMEN EXPLORER™ [Laser-scanning fluorescence microplate cytometer manufactured by TTP LABTECH LTD] to measure PRα. Image analysis is based on cellular fluorescent signals for identifying positive cells. Identify PRα positive cells by mean intensity. Use total intensity at 575-640 from propidium iodide/DNA to identify individual cells. Assay output is % PRα positive cells. Determine the IC50 by curve fitting to a four parameter logistic for each output using GENE DATA™.

The structures appear in SMILES notation.

With `O=C(c1ccc(OCCN2CC(CF)C2)cc1)c1c(-c2ccc(C(F)(F)F)cc2F)cnc2cc(O)ccc12` [Example 1, (4-{2-[3-(Fluoromethyl)azetidin-1-yl]ethoxy}phenyl){3-[2-fluoro-4-(trifluoromethyl)phenyl]-7-hydroxyquinolin-4-yl}methanone], the IC50 (commonly the concentration at which inhibition is half-maximal) was determined as 15.8 ± 9.04 nM.
